In ChEMBL document CHEMBL1132382 (J Med Chem, 1999):
≈ marks a conversion by molar mass, not a printed value.

Key:
physchem = conditions: buffer, pH 7.4
Carbonic anhydrase 1 = Carbonic anhydrase 1 (Homo sapiens, UniProt P00915)
Description: Inhibitory activity against human recombinant carbonic anhydrase I (CA1)

[1] = octanol/water
Description: Partition coefficient (logD) (chloroform/buffer)

Oryctolagus cuniculus [2] = organism: Oryctolagus cuniculus; experiment: The compound was evaluated for fall in intraocular pressure (IOP) of Normotensive rabbits after treatment with one drop (50 microL) of a 2% solution at 0 min (pH 6.4); assay type: functional, Eye
Oryctolagus cuniculus [3] = organism: Oryctolagus cuniculus; experiment: The compound was evaluated for fall in intraocular pressure (IOP) of Normotensive rabbits after treatment with one drop (50 microL) of a 2% solution at 30 min (pH 6.4); assay type: functional, Eye
Oryctolagus cuniculus [4] = organism: Oryctolagus cuniculus; experiment: The compound was evaluated for fall in intraocular pressure (IOP) of Normotensive rabbits after treatment with one drop (50 microL) of a 2% solution at 60 min (pH 6.4); assay type: functional, Eye
Carbonic anhydrase 4 = molecular target: T1, Carbonic anhydrase 4 (Bos taurus, UniProt Q95323)
T1 sequence (Q95323 whole entry): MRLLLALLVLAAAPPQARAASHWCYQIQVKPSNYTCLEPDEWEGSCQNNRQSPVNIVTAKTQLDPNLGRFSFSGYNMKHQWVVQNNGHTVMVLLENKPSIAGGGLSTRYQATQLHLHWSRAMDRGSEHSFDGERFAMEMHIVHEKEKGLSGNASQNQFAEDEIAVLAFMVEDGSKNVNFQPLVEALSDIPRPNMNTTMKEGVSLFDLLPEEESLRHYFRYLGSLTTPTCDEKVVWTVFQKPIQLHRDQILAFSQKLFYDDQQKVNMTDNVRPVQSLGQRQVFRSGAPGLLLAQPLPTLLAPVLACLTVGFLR
Description: Inhibitory activity against bovine carbonic anhydrase IV (CA4), isolated from bovine lung microsomes

Oryctolagus cuniculus [5] = organism: Oryctolagus cuniculus; experiment: The compound was evaluated for fall in intraocular pressure (IOP) of Normotensive rabbits after treatment with one drop (50 microL) of a 2% solution at 90 min (pH 6.4); assay type: functional, Eye
[6] = not given; remark: listed apart in the source
Oryctolagus cuniculus [7] = organism: Oryctolagus cuniculus; experiment: The compound was evaluated for fall in intraocular pressure (IOP) of Normotensive rabbits after treatment with one drop (50 microL) of a 2% solution at 60 min (pH 5.5); assay type: functional, Eye
Oryctolagus cuniculus [8] = organism: Oryctolagus cuniculus; experiment: The compound was evaluated for fall in intraocular pressure (IOP) of Normotensive rabbits after treatment with one drop (50 microL) of a 2% solution at 0 min (pH 5.5); assay type: functional, Eye
Oryctolagus cuniculus [9] = organism: Oryctolagus cuniculus; experiment: The compound was evaluated for fall in intraocular pressure (IOP) of Normotensive rabbits after treatment with one drop (50 microL) of a 2% solution at 30 min (pH 5.5); assay type: functional, Eye
Oryctolagus cuniculus [10] = organism: Oryctolagus cuniculus; experiment: The compound was evaluated for fall in intraocular pressure (IOP) of Normotensive rabbits after treatment with one drop (50 microL) of a 2% solution at 90 min (pH 5.5); assay type: functional, Eye
Oryctolagus cuniculus [11] = organism: Oryctolagus cuniculus; experiment: The compound was evaluated for fall in intraocular pressure (IOP) of Normotensive rabbits after treatment with one drop (50 microL) of a 2% solution at 60 min (pH 6.5); assay type: functional, Eye
Oryctolagus cuniculus [12] = organism: Oryctolagus cuniculus; experiment: The compound was evaluated for fall in intraocular pressure (IOP) of Normotensive rabbits after treatment with one drop (50 microL) of a 2% solution at 30 min (pH 6.5); assay type: functional, Eye
Oryctolagus cuniculus [13] = organism: Oryctolagus cuniculus; experiment: The compound was evaluated for fall in intraocular pressure (IOP) of Normotensive rabbits after treatment with one drop (50 microL) of a 2% solution at 90 min (pH 6.5); assay type: functional, Eye
Oryctolagus cuniculus [14] = organism: Oryctolagus cuniculus; experiment: The compound was evaluated for fall in intraocular pressure (IOP) of Normotensive rabbits after treatment with one drop (50 microL) of a 2% solution at 0 min (pH 6.5); assay type: functional, Eye
Oryctolagus cuniculus [15] = organism: Oryctolagus cuniculus; experiment: The compound was evaluated for fall in intraocular pressure (IOP) of glaucomatous rabbits after treatment with one drop (50 microL) of a 2% solution at 90 min (pH 7.5); assay type: functional, Eye
Oryctolagus cuniculus [16] = organism: Oryctolagus cuniculus; experiment: The compound was evaluated for fall in intraocular pressure (IOP) of Normotensive rabbits after treatment with one drop (50 microL) of a 2% solution at 0 min (pH 7.5); assay type: functional, Eye
Oryctolagus cuniculus [17] = organism: Oryctolagus cuniculus; experiment: The compound was evaluated for fall in intraocular pressure (IOP) of Normotensive rabbits after treatment with one drop (50 microL) of a 2% solution at 60 min (pH 7.5); assay type: functional, Eye
Oryctolagus cuniculus [18] = organism: Oryctolagus cuniculus; experiment: The compound was evaluated for fall in intraocular pressure (IOP) of glaucomatous rabbits after treatment with one drop (50 microL) of a 2% solution at 30 min (pH 7.5); assay type: functional, Eye
Oryctolagus cuniculus [19] = organism: Oryctolagus cuniculus; experiment: The compound was evaluated for fall in intraocular pressure (IOP) of glaucomatous rabbits after treatment with one drop (50 microL) of a 2% solution at 60 min (pH 7.5); assay type: functional, Eye
Oryctolagus cuniculus [20] = organism: Oryctolagus cuniculus; experiment: The compound was evaluated for fall in intraocular pressure (IOP) of Normotensive rabbits after treatment with one drop (50 microL) of a 2% solution at 30 min (pH 7.5); assay type: functional, Eye
Oryctolagus cuniculus [21] = organism: Oryctolagus cuniculus; experiment: The compound was evaluated for fall in intraocular pressure (IOP) of Normotensive rabbits after treatment with one drop (50 microL) of a 2% solution at 60 min (pH 7.0); assay type: functional, Eye
Oryctolagus cuniculus [22] = organism: Oryctolagus cuniculus; experiment: The compound was evaluated for fall in intraocular pressure (IOP) of Normotensive rabbits after treatment with one drop (50 microL) of a 2% solution at 30 min (pH 7.0); assay type: functional, Eye
Oryctolagus cuniculus [23] = organism: Oryctolagus cuniculus; experiment: The compound was evaluated for fall in intraocular pressure (IOP) of Normotensive rabbits after treatment with one drop (50 microL) of a 2% solution at 0 min (pH 7.0); assay type: functional, Eye
Oryctolagus cuniculus [24] = organism: Oryctolagus cuniculus; experiment: The compound was evaluated for fall in intraocular pressure (IOP) of Normotensive rabbits after treatment with one drop (50 microL) of a 2% solution at 90 min (pH 7.0); assay type: functional, Eye
Oryctolagus cuniculus [25] = organism: Oryctolagus cuniculus; experiment: The compound was evaluated for fall in intraocular pressure (IOP) of Normotensive rabbits after treatment with one drop (50 microL) of a 2% solution at 30 min (pH 5.6); assay type: functional, Eye
Oryctolagus cuniculus [26] = organism: Oryctolagus cuniculus; experiment: The compound was evaluated for fall in intraocular pressure (IOP) of Normotensive rabbits after treatment with one drop (50 microL) of a 2% solution at 90 min (pH 5.6); assay type: functional, Eye
Oryctolagus cuniculus [27] = organism: Oryctolagus cuniculus; experiment: The compound was evaluated for fall in intraocular pressure (IOP) of Normotensive rabbits after treatment with one drop (50 microL) of a 2% solution at 0 min (pH 5.6); assay type: functional, Eye
Oryctolagus cuniculus [28] = organism: Oryctolagus cuniculus; experiment: The compound was evaluated for fall in intraocular pressure (IOP) of Normotensive rabbits after treatment with one drop (50 microL) of a 2% solution at 60 min (pH 5.6); assay type: functional, Eye

Sequence of Carbonic anhydrase 1 (P00915 whole entry): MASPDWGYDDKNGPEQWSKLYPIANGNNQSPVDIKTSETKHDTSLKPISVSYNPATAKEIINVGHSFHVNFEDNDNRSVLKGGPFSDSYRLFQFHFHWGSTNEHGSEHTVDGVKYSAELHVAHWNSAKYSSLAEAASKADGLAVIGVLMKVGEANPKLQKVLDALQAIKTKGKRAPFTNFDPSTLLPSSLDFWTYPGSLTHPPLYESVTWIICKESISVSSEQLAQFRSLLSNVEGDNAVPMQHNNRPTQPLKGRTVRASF

Compound | solubility (physchem) | Ki (Carbonic anhydrase 1) | logD [1] | Change in IOP (Oryctolagus cuniculus [2]) | Change in IOP (Oryctolagus cuniculus [3]) | Change in IOP (Oryctolagus cuniculus [4]) | kin | Ki (Carbonic anhydrase 4) | Change in IOP (Oryctolagus cuniculus [5]) | kin [6] | also measured
NCC(=O)NCC(=O)NS(=O)(=O)c1nc2ccc(OCCO)cc2s1 | 50 mM (≈ 19.4 mg/mL) | 9 nM | 1.85 | 0 mmHg | 3.3 mmHg | 7 mmHg | 3.1 h⁻¹ | 18 nM | 5.4 mmHg | 6.4 h⁻¹ | –
CCN(C(=O)CN(C)C(=N)N)C1CC(C)S(=O)(=O)c2sc(S(N)(=O)=O)cc21 (configuration not stated) | – | 75 nM | – | 0 mmHg | 5 mmHg | 9.1 mmHg | – | 27 nM | 7.6 mmHg | – | –
CCN(C(=O)CNC(=O)CN)C1CC(C)S(=O)(=O)c2sc(S(N)(=O)=O)cc21 (configuration not stated) | – | 90 nM | – | 0 mmHg | 4.9 mmHg | 8.7 mmHg | – | 31 nM | 6.9 mmHg | – | –
NCC(=O)NCCC(=O)Nc1nnc(S(N)(=O)=O)s1 | – | 21 nM | – | – | – | – | – | 10 nM | – | – | Change in IOP (Oryctolagus cuniculus [7]): 9.3 mmHg; Change in IOP (Oryctolagus cuniculus [8]): 0 mmHg; Change in IOP (Oryctolagus cuniculus [9]): 5 mmHg; Change in IOP (Oryctolagus cuniculus [10]): 8.4 mmHg
CN(CC(=O)Nc1ccc(S(N)(=O)=O)cc1F)C(=N)N | – | 510 nM | – | – | – | – | – | 39 nM | – | – | Change in IOP (Oryctolagus cuniculus [11]): 7.2 mmHg; Change in IOP (Oryctolagus cuniculus [12]): 3 mmHg; Change in IOP (Oryctolagus cuniculus [13]): 5 mmHg; Change in IOP (Oryctolagus cuniculus [14]): 0 mmHg
CN(CC(=O)NCCC(=O)Nc1nnc(S(N)(=O)=O)s1)C(=N)N | 75 mM (≈ 27.3 mg/mL) | 21 nM | 1.944 | – | – | – | 4.7 h⁻¹ | 8 nM | – | 8.5 h⁻¹ | Change in IOP (Oryctolagus cuniculus [15]): 14.3 mmHg; Change in IOP (Oryctolagus cuniculus [16]): 6.6 mmHg; Change in IOP (Oryctolagus cuniculus [17]): 9.8 mmHg; Change in IOP (Oryctolagus cuniculus [18]): 8.6 mmHg; Change in IOP (Oryctolagus cuniculus [19]): 14.2 mmHg; Change in IOP (Oryctolagus cuniculus [20]): 10.7 mmHg
CN(CC(=O)/N=c1/sc(S(N)(=O)=O)nn1C)C(=N)N | – | 190 nM | – | – | – | – | – | 41 nM | – | – | Change in IOP (Oryctolagus cuniculus [21]): 9.2 mmHg; Change in IOP (Oryctolagus cuniculus [22]): 5.5 mmHg; Change in IOP (Oryctolagus cuniculus [23]): 0 mmHg; Change in IOP (Oryctolagus cuniculus [24]): 9 mmHg
CCNC1CC(C)S(=O)(=O)c2sc(S(=O)(=O)NC(=O)CNC)cc21 (configuration not stated) | 62 mM (≈ 24.5 mg/mL) | 78 nM | 1.785 | – | – | – | 3.9 h⁻¹ | 30 nM | – | 7.8 h⁻¹ | Change in IOP (Oryctolagus cuniculus [25]): 3.1 mmHg; Change in IOP (Oryctolagus cuniculus [26]): 5.5 mmHg; Change in IOP (Oryctolagus cuniculus [27]): 0 mmHg; Change in IOP (Oryctolagus cuniculus [28]): 7 mmHg
